What is called DC50 is the concentration giving 50% degradation.

This assay concerns the target T1, ERα (Homo sapiens, UniProt P03372).
T1 sequence (P03372 1-595): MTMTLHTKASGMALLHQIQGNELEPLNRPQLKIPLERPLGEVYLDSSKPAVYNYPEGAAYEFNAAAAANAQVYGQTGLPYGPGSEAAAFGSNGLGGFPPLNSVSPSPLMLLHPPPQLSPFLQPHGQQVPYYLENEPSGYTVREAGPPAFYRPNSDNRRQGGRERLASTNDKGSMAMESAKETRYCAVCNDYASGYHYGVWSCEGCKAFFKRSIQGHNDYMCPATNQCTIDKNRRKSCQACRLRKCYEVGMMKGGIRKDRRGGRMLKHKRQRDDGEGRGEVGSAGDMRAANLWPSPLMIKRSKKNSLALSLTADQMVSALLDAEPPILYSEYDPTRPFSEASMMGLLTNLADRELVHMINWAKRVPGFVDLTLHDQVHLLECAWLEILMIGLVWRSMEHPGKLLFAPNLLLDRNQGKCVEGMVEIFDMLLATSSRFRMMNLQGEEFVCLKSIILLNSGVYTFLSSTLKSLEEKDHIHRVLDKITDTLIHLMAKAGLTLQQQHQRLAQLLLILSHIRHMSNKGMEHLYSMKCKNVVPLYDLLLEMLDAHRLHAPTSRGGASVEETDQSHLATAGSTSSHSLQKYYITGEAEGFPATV
The assay can be described thus: ERα degradative activity in T47D cells (western blot, densitometry). The format is cell-based. The arrangement: endogenous in cells; host or cells: T47D. As to conditions: T47D cell line; concentration at which 50% of the target protein (ERα) is degraded. The method, then: T47D cells were plated in 24-well plates at 1.5×10^5 cells/well in the RPMI growth medium containing 10% FBS and 1× Penicillin Streptomycin, and then incubated at 37° C. overnight. The following day, the test compound was administered to the cells by using 1000× compound stock solution prepared in DMSO at various concentrations. After administration of the compound, the cells were then incubated at 37 C for various period of treatment time, e.g., as indicated in the figures.
Upon completion, the cells were washed with PBS and protein was collected in Laemmli sample buffer (1×; VWR International). Protein was isolated from cell lysate (approximately 25 μg) by SDS-PAGE and transferred to nitrocellulose membranes. Non-specific binding was blocked by incubation with blocking buffer (5% milk in Tris-buffered saline with 0.1% Tween 20 (“TBS-T”)) at rt for 60 minutes.
The membrane was then incubated with primary antibodies (mouse anti-ERα (1:500, Santa Cruz), mouse anti-GAPDH (1:5,000, Santa Cruz), or mouse anti-actin (1:4,000, Santa Cruz)) overnight at 4° C., followed by washing (3 times) with TBS-T, and then incubation with horseradish peroxidase-conjugated rabbit anti-mouse IgG (1:5,000) for 60 minutes. After the TBS-T washes, blots were developed with an enhanced chemiluminescence kit (ThermoFisher Scientific) and the bands were imaged and quantified by densitometry (Bio-Rad).
The DC50 values (i.e., the concentration of test compound at which 50% of the target protein is degraded) was calculated for various compounds of the present disclosure and are shown in the Table 3, below. A corresponds to a DC50 value less than or equal to 1.5 μM; B corresponds to a DC50 value greater than 1.5 μM and less than 3 μM; and C corresponds to a DC50 value greater than 3 μM.
`CC/C(=C(\c1ccccc1)c1ccc(OCCN(C)C(=O)CCOCCNc2cccc3c2C(=O)N(C2CCC(=O)NC2=O)C3=O)cc1)c1ccccc1` (stereo not shown) [Compound 8, (Z)-3-(2-((2-(2,6-dioxopiperidin-3-yl)-1,3-dioxoisoindolin-4-yl)amino)ethoxy)-N-(2-(4-(1,2-diphenylbut-1-en-1-yl)phenoxy)ethyl)-N-methylpropanamide] returned a 50% degradation concentration (DC50) above 3000 nM.

In turn, `CC/C(=C(\c1ccccc1)c1ccc(OCCN(C)C(=O)CCOCCOCCNc2cccc3c2C(=O)N(C2CCC(=O)NC2=O)C3=O)cc1)c1ccccc1` (stereo not shown) [Compound 15, (Z)-3-(2-(2-((2-(2,6-Dioxopiperidin-3-yl)-1,3-dioxoisoindolin-4-yl)amino)ethoxy)ethoxy)-N-(2-(4-(1,2-diphenylbut-1-en-1-yl)phenoxy)ethyl)-N-methylpropanamide] returned a half-maximal degradation concentration (DC50) above 3000 nM.

For the compound `CC/C(=C(\c1ccccc1)c1ccc(OCCN(C)C(=O)CCOCCOCCOCCOCCNc2cccc3c2C(=O)N(C2CCC(=O)NC2=O)C3=O)cc1)c1ccccc1` (stereo not shown) [Compound 54, (Z)-1-((2-(2,6-dioxopiperidin-3-yl)-1,3-dioxoisoindolin-4-yl)amino)-N-(2-(4-(1,2-diphenylbut-1-en-1-yl)phenoxy)ethyl)-N-methyl-3,6,9,12-tetraoxapentadecan-15-amide], the DC50 is at most 1500 nM.

In turn, `CC/C(=C(\c1ccccc1)c1ccc(OCCN(C)C(=O)CCOCCOCCOCCOCCOCCNc2cccc3c2C(=O)N(C2CCC(=O)NC2=O)C3=O)cc1)c1ccccc1` (stereo not shown) [Compound 64, (Z)-1-((2-(2,6-dioxopiperidin-3-yl)-1,3-dioxoisoindolin-4-yl)amino)-N-(2-(4-(1,2-diphenylbut-1-en-1-yl)phenoxy)ethyl)-N-methyl-3,6,9,12,15-pentaoxaoctadecan-18-amide] returned a DC50 of at most 1500 nM.

As to `CC/C(=C(\c1ccccc1)c1ccc(OCCN(C)C(=O)CNc2cccc3c2C(=O)N(C2CCC(=O)NC2=O)C3=O)cc1)c1ccccc1` (stereo not shown) [Compound 88, (Z)-2-((2-(2,6-dioxopiperidin-3-yl)-1,3-dioxoisoindolin-4-yl)amino)-N-(2-(4-(1,2-diphenylbut-1-en-1-yl)phenoxy)ethyl)-N-methylacetamide], the 50% degradation concentration (DC50) was above 3000 nM.

On to `CC/C(=C(\c1ccccc1)c1ccc(OCCN(C)C(=O)CCNc2cccc3c2C(=O)N(C2CCC(=O)NC2=O)C3=O)cc1)c1ccccc1` (stereo not shown) [Compound 89, (Z)-3-((2-(2,6-dioxopiperidin-3-yl)-1,3-dioxoisoindolin-4-yl)amino)-N-(2-(4-(1,2-diphenylbut-1-en-1-yl)phenoxy)ethyl)-N-methylpropanamide], for which the DC50 is at most 1500 nM.

Turning to `CC/C(=C(\c1ccccc1)c1ccc(OCCN(C)C(=O)CCCNc2cccc3c2C(=O)N(C2CCC(=O)NC2=O)C3=O)cc1)c1ccccc1` (stereo not shown) [Compound 108, (Z)-4-((2-(2,6-dioxopiperidin-3-yl)-1,3-dioxoisoindolin-4-yl)amino)-N-(2-(4-(1,2-diphenylbut-1-en-1-yl)phenoxy)ethyl)-N-methylbutanamide], the DC50 was at most 1500 nM.

The compound `CC/C(=C(\c1ccccc1)c1ccc(OCCN(C)C(=O)CCCCCNc2cccc3c2C(=O)N(C2CCC(=O)NC2=O)C3=O)cc1)c1ccccc1` (stereo not shown) [Compound 120, (Z)-6-((2-(2,6-dioxopiperidin-3-yl)-1,3-dioxoisoindolin-4-yl)amino)-N-(2-(4-(1,2-diphenylbut-1-en-1-yl)phenoxy)ethyl)-N-methylhexanamide] displayed a half-maximal degradation concentration (DC50) of at most 1500 nM.

`CC/C(=C(\c1ccccc1)c1ccc(OCCN(C)C(=O)CCCCCCNc2cccc3c2C(=O)N(C2CCC(=O)NC2=O)C3=O)cc1)c1ccccc1` (stereo not shown) [Compound 126, (Z)-7-((2-(2,6-dioxopiperidin-3-yl)-1,3-dioxoisoindolin-4-yl)amino)-N-(2-(4-(1,2-diphenylbut-1-en-1-yl)phenoxy)ethyl)-N-methylheptanamide] yielded a DC50 of 1500 to 3000 nM.

In the case of `CC/C(=C(\c1ccccc1)c1ccc(OCCN(C)C(=O)CCCCCCCNc2cccc3c2C(=O)N(C2CCC(=O)NC2=O)C3=O)cc1)c1ccccc1` (stereo not shown) [Compound 143, (Z)-8-((2-(2,6-dioxopiperidin-3-yl)-1,3-dioxoisoindolin-4-yl)amino)-N-(2-(4-(1,2-diphenylbut-1-en-1-yl)phenoxy)ethyl)-N-methyloctanamide], the DC50 is 1500 to 3000 nM.

The values are drawn from patent US11117885B2, “Compounds having estrogen receptor alpha degradation activity and uses thereof” (ACCUTAR BIOTECHNOLOGY INC., priority 2018, dated 2021).
